According to US9617311B2, “Use of PEDF-derived polypeptides for promoting stem cells proliferation and wound healing” (Mackay Memorial Hospital, priority 2011, dated 2017):

What was measured:
[1] = tested on: limbal epithelial stem cells (LSCs); experiment: In vitro LSC proliferation, BrdU pulse-labeling with ΔNp63α immunostaining; assay type: cell-based, New Zealand white rabbits; conditions: BrdU 2 hours; for percentage of BrdU and ΔNp63α-double positive cells per total ΔNp63α-positive cells: 25 nM peptide or 4.5 nM PEDF in medium, control medium 3.0±0.5%, mean±SEM
Description: LSCs were isolated from six-month-old New Zealand white rabbits and used for cell-suspension culture in accordance with the method previously described by Cheng et al. (The growth-promoting effect of KGF on limbal epithelial cells is mediated by upregulation of DeltaNp63alpha through the p38 pathway. J Cell Sci 2009; 122 (Pt 24): 4473-4480) and Wang et al. (Importin 13 serves as a potential marker for corneal epithelial progenitor cells. Stem Cells 2009; 27: 2516-2526) with a slight modification. Rabbit limbal tissues were washed in PBS containing 100 U/ml penicillin and 50 μg/ml gentamicin. After carefully removing the iris, and excessive sclera, the limbal rings were exposed to dispase II (1.2 IU/ml in Hanks' balanced salt solution free of Mg^2+ and Ca^2+) at 4° C. for 16 hours. The loosened epithelial sheets were removed with a cell scraper and separated into single cells by enzymatic digestion (0.05% trypsin, and 0.01% EDTA) for 15 min at 37° C. with gentle shaking and transferred to a stop medium (9 ml of HEPES-buffered DMEM containing 10% FBS). Cells were then collected by centrifugation (400×g for 5 min).
About 1×10^5 cells were seeded on each wells of a 6-well plate and incubated in a DMEM/Ham's F-12 basal medium (10 mM HEPES, 5 ng/ml human EGF, 1% SITE liquid medium, antibiotic-antimicotic solutions, 0.5% DMSO and 0.5 μg/ml hydrocortisone) supplemented with 10% FBS for 2 days, and then shifted to a basal medium or basal medium containing 4.5 nM PEDF, 25 nM 39-mer, 25 nM 34-mer, 25 nM 29-mer, 25 nM 25-mer, 25 nM 20-mer, 25 nM 18-mer, 25 nM Mo 29-mer or 25-nM Mo 20-mer. The cells were continued cultivated at 37° C. under 5% CO2 for another 3 days until they reached confluence (passage 0). LSCs were co-cultured with MMC-treated NIH-3T3 fibroblast feeder cells located within trans-well (0.4 μm pore, BD Biosciences, Bedford, Mass.). For passage purpose, near-confluent cells were harvested again by enzymatic treatment (i.e., 0.25% trypsin), and then 1×10^5 subcultured cells were further cultured in the respective medium, and proliferative capacity of cells was compared every 4 days after continuously culture-subculture (passage).
De-paraffinized tissue sections or 4% paraformaldehyde-fixed LSCs were blocked with 10% goat serum and 5% BSA in PBST (PBS containing 0.1% Tween-20) for 1 hour. Staining was done using primary antibodies against ΔNp63α (1:150 dilution), BrdU (1:250 dilution), and keratin-3 (1:250 dilution) at 37° C. for 2 hours, followed by incubation with the appropriate rhodamine- or FITC-conjugated donkey IgG (1:500 dilution) for 1 hour at RT. Nuclei were identified by counterstaining with Hoechst 33258 for 7 minutes. Images were captured using a Zeiss epifluorescence microscope with a CCD camera and photographs were taken by using the Axiovert software.
(§1) 2×10^5 limbal cells (the 1st passage) were seeded at a slide coated with FNC COATING MIX® solution (Athena Enzyme Systems, Baltimore, Md.) and incubated with a culture medium for one day. BrdU (final, 10 μM) was added to the culture for 2 hours. After being fixed with 4% paraformaldehyde, cells were exposed to cold methanol for 2 minutes, and then treated with 1 N HCl at RT for 1 hour before performing immunofluorescence. For animal study, BrdU was reconstituted in DMSO as stock (80 mM). 10 μl of BrdU mixed with 90 μl of PBS was intraperitoneally injected into mouse 3 hours prior to euthanasia. DNA synthesis was assessed by BrdU labeling with anti-BrdU antibodies.

[2] = tested on: basal cells of the hyper-proliferative epithelium; experiment: Cell replication at basal layer of HE tissue at day 4 post skin wounding, BrdU immunohistochemistry; assay type: in vivo, C57L/B6 mice; conditions: day 4 of skin ointment treatment; BrdU i.p. 3 hours before euthanasia; control wound 30.8±8.1%
Description: FIGS. 9A and 9B illustrate histological analysis of cell replication at day 4 post-skin wounding. FIG. 9A provides photographs in which specimens were immunehistologically stained with BrdU to observe DNA replication (deep brown color) and counterstained with hematoxylin to observe nuclei. […] (Original magnification, ×200). FIG. 9B is a histogram illustrating numbers of BrdU-positive cells at basal layer of HE tissue. A labeling index (%) was computed as the number of labeled cells divided by the total number of cells at basal layer of HE tissue. *P<0.05 versus control wound.
as §1
(§2) To perform full-thickness skin excision, 8- to 10-week-old C57L/B6 mice were respectively anesthetized by an intraperitoneal injection of a mixture of zoletil (6 mg/kg) and xylazine (3 mg/kg). Two full-thickness skin excisional wounds, 4 mm in diameter were made on either side of the dorsal midline using Sklar Tru-Punch disposable biopsy punch (Sklar, West Chester, Pa., USA). In each treatment group (n=6), the skin wound was treated with 25 μl skin ointment (containing 50 μM synthetic peptide and 0.006 μl DMSO vehicle) once daily after the skin scraping. In the control group (n=6), skin wound was treated with 25 μl of skin ointment with equal concentration of DMSO. Each gram of the above skin ointment contains 5 mg neomycin sulfate and 12.5 mg Bacitracin Zinc. Wounds were left uncovered and harvested 4 and 7 days after injury. Mice were housed individually during the healing period.
To investigate whether skin resurfacing process, which involves cell replication, is accelerated by 29-mer, Mo 29-mer, 20-mer, or Mo 20-mer, wounds were treated with skin ointment containing 29-mer, Mo 29-mer, 20-mer, or Mo 20-mer for 4 days, and then mice were intraperitoneally injected with BrdU for further 3 hours before euthanized. […] This observation was consistent with the thicker HE tissue treated with 29-mer or 20-mer.

[3] = tested on: full-thickness skin excisional wounds; experiment: Skin wound healing in mice, wound area from photographs; assay type: in vivo, C57L/B6 mice; conditions: for residual epithelial defects, percentage of the original wound: 25 μl skin ointment with 50 μM peptide once daily
Description: FIG. 6A provides photographs and FIG. 6B is a histogram, and together, they illustrate the skin (epithelial) wound-healing of mice from treatment groups according to another example of the present disclosure. 4 mm punch wounds were made on the dorsal side of C57/B6 mice. Skin ointment was treated once a day. Photographs of the wounded skin and ruler (scale 10 mm) were captured with a CCD camera (Olympus). The residual epithelial defect (%) is presented as percentage of the original wound. Data are shown as mean±SE.
as §2
The area of wound was quantified from the photographs using a computer-assisted image analyzer (Adobe Photoshop CS3 10.0) and was calculated as the percentage of residual epithelial defect at each time point/initial wound area.

[4] = day 4 post-injury, control 61.5±3.2%
[5] = day 7 post-injury, control 44.5±5.3%

| Sequence | percentage of BrdU and ΔNp63α-double positive cells per total ΔNp63α-positive cells [1] | BrdU-positive cells at basal layer of HE tissue, labeling index [2] | residual epithelial defects, percentage of the original wound [3, 4] | residual epithelial defects, percentage of the original wound [3, 5] | enhanced LSC proliferation versus control medium ([1]; 25 nM peptide in medium) | promotion of skin wound healing ([3]; days 4 and 7, 50 μM peptide skin ointment once daily) |
| --- | --- | --- | --- | --- | --- | --- |
| SLGAEHRTESVIHRALYYDLITNPDIHST [Mo 29-mer, synthetic peptide derived from mouse PEDF] | 27.1±1.8% | 52.5±2.5% | 47.8±4.3% | 16.8±6.6% | – | – |
| EQRTESIIHRALYYDLIS [18-mer] | – | – | – | – | enhanced proliferation was not observed | not able to promote wound healing |
| SLGAEHRTESVIHRALYYDL [Mo 20-mer, synthetic peptide derived from mouse PEDF] | 26.3±2.2% | 49.2±4.3% | 49.6±3.9% | 20.3±7.5% | – | – |
| SLGAEQRTESIIHRALYYDLISSPDIHGT [29-mer, short synthetic PEDF peptide derived from the 39-mer] | 33.9±2.6% | 47.9±5.0% | 46.3±3.7% | 18.2±4.3% | – | – |
| SLGAEQRTESIIHRALYYDL [20-mer, synthetic peptide identical to residues 11-30 of the 39-mer] | 31.8±1.7% | 53.1±6.5% | 50.1±3.8% | 20.0±4.9% | – | – |
